From PubChem BioAssay (NCI)
“And” between values parts separate entries of the source, which are not always exact repeats. Identical values can stand only once.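 Dose response: 5 concentrations. Exposure: 48 h. Format: 96-well plates. Endpoint: linear interpolation; highest concentration if not reached. GI50 is the concentration that inhibits growth by half. At the TGI there is no net growth.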

Columns and labels:
Assay in all cases: NCI anticancer screen, dose series, 48 h; in the data active means GI50 below about 0.43 µM; inactive means the rest
[1] = system: HCT-116 colon
[2] = system: SK-MEL-5 melanoma
[3] = system: NCI-H226 lung
[4] = system: EKVX NSCLC
[5] = system: HL-60(TB) leukemia
[6] = system: DLD-1 colon
[7] = system: M19-MEL melanoma
[8] = system: SR leukemia
[9] = system: KM12 colon
[10] = system: M14 melanoma
[11] = system: NCI-H23 lung
[12] = system: SN12C renal
[13] = system: HOP-92 NSCLC
[14] = system: LOX IMVI melanoma
[15] = system: HOP-62 NSCLC
[16] = system: A549 NSCLC
[17] = system: K-562 leukemia
[18] = system: RXF-631 renal
[19] = system: SNB-75 CNS
[20] = system: SNB-19 CNS
[21] = system: LXFL 529 NSCLC
[22] = system: SK-MEL-2 melanoma
[23] = system: OVCAR-8 ovarian
[24] = system: ACHN renal
[25] = system: DMS 114 small cell lung
[26] = system: SK-OV-3 ovarian
[27] = system: SF-295 CNS
[28] = system: OVCAR-5 ovarian
[29] = system: IGROV1 ovarian
[30] = system: MALME-3M melanoma
[31] = system: XF 498 CNS
[32] = system: HCT-15 colon
[33] = system: UO-31 renal
[34] = system: 786-0 renal
[35] = system: A498 renal
[36] = system: SF-268 CNS
[37] = system: UACC-62 melanoma
[38] = system: U251 CNS
[39] = system: DMS 273 small cell lung
[40] = system: COLO 205 colon
[41] = system: HT29 colon
[42] = system: HOP-18 NSCLC
[43] = system: SW-620 colon
[44] = system: CCRF-CEM leukemia
[45] = system: KM20L2 colon
[46] = system: RXF 393 renal
[47] = system: NCI-H460 lung
[48] = system: MOLT-4 leukemia
[49] = system: OVCAR-3 ovarian
[50] = system: SF-539 CNS
[51] = system: SK-MEL-28 melanoma
[52] = system: NCI-H522 lung
[53] = system: CAKI-1 renal
[54] = system: TK-10 renal
[55] = system: OVCAR-4 ovarian
[56] = system: UACC-257 melanoma
[57] = system: HCC-2998 colon
[58] = system: SNB-78 CNS
[59] = system: PC-3 prostate
[60] = system: NCI/ADR-RES ovarian
[61] = system: T-47D breast
[62] = system: HS 578T breast
[63] = system: RPMI-8226 leukemia
[64] = system: MDA-N
[65] = system: MDA-MB-435
[66] = system: BT-549 breast
[67] = system: MDA-MB-231 breast
[68] = system: MCF7 breast
[69] = system: DU-145 prostate

CC(=O)O/N=C/c1ncccc1OC(C)=O
> 100 µM: TGI [1] | TGI [2] | TGI [3] | TGI [4] | TGI [5] | TGI [6] | TGI [7] | TGI [8] | TGI [9] | TGI [10] | TGI [11] | TGI [12] | TGI [13] | TGI [14] | TGI [15] | TGI [16] | TGI [17] | TGI [18] | TGI [19] | TGI [20] | TGI [21] | TGI [22] | TGI [23] | TGI [24] | TGI [25] | TGI [26] | TGI [27] | TGI [28] | TGI [29] | TGI [30] | TGI [31] | TGI [32] | TGI [33] | TGI [34] | TGI [35] | TGI [36] | TGI [37] | TGI [38] | TGI [39] | TGI [40] | TGI [41] | TGI [42] | TGI [43] | TGI [44] | TGI [45] | TGI [46] | TGI [47] | TGI [48] | TGI [49] | TGI [50] | TGI [51] | TGI [52] | TGI [53] | TGI [54] | TGI [55] | TGI [56]

O=C1C(CN2CCCCC2)CCCC1CN1CCCCC1 (configuration not stated)
> 65.6 µM and 12 µM: TGI [48]
18.4 µM and 5.93 µM: TGI [13]
28.5 µM and 30.9 µM: TGI [42]
28.2 µM and 42.8 µM: TGI [32]
29.3 µM and 28.9 µM: TGI [21]
13.1 µM: TGI [63]
72.3 µM: TGI [62]
15.8 µM and 25.5 µM: TGI [17]
> 56.9 µM and 16.1 µM: TGI [40]
> 52.2 µM and 39.5 µM: TGI [10]
30.9 µM: TGI [65] | TGI [66]
> 31.6 µM and 48.7 µM: TGI [12]
22.2 µM: TGI [55]
29.7 µM: TGI [64]
18.4 µM and 31.7 µM: TGI [51]
> 100 µM and 48.4 µM: TGI [22]
24.6 µM and 13.7 µM: TGI [43]
39.3 µM and > 63.1 µM: TGI [5]
22.3 µM and 15 µM: TGI [34]
43.9 µM and 47.2 µM: TGI [8]
34 µM and 39.3 µM: TGI [24]
> 57.5 µM and 47.8 µM: TGI [50]
21 µM and 39.3 µM: TGI [23]
3.74 µM: TGI [61]
31.6 µM: TGI [46]
55.9 µM: TGI [60]
20.6 µM and > 22.6 µM: TGI [44]
34.7 µM: TGI [67]
> 67.9 µM: TGI [37]
31.5 µM and 32 µM: TGI [6]
18.7 µM and 79.4 µM: TGI [25]
> 57.1 µM and 36.7 µM: TGI [7]
7.87 µM: TGI [68]
26.2 µM and 11.9 µM: TGI [53]
> 68.4 µM and 55.8 µM: TGI [11]
38 µM and 39.8 µM: TGI [4]
29.8 µM: TGI [59]
33.4 µM and 39.8 µM: TGI [31]
27.6 µM and 29 µM: TGI [1]
47.6 µM and 44.8 µM: TGI [58]
inactive: GI50 [5] 19 µM and 8.6 µM | GI50 [7] > 43 µM and 19.8 µM | GI50 [13] 7.52 µM and 2.89 µM | GI50 [17] 8.04 µM and 3.15 µM | GI50 [19] > 100 µM and 46.2 µM | GI50 [22] > 83.2 µM and 31.9 µM | GI50 [25] 7.38 µM and 27.4 µM | GI50 [36] > 89.2 µM | GI50 [40] 25.5 µM and 8.41 µM | GI50 [44] 4.86 µM and 2.41 µM | GI50 [47] > 100 µM | GI50 [48] 10.9 µM and 4.27 µM | GI50 [53] 13 µM and 5.2 µM | GI50 [54] > 100 µM and 12.4 µM
active: GI50 [69] 0.059 µM
> 100 µM: TGI [3] | TGI [9] | TGI [57] | TGI [15] | TGI [16] | TGI [19] | TGI [20] | TGI [26] | TGI [27] | TGI [28] | TGI [29] | TGI [35] | TGI [36] | TGI [38] | TGI [39] | TGI [47]
> 31.6 µM and 47.6 µM: TGI [2]
> 68.4 µM: TGI [33]
> 57.2 µM: TGI [14]
32.1 µM and 34 µM: TGI [49]
57.9 µM and 31.7 µM: TGI [56]
17.8 µM and 22.8 µM: TGI [45]
11.4 µM and 14.8 µM: TGI [30]
> 100 µM and 28.4 µM: TGI [54]
32.2 µM: TGI [69]
34.2 µM and 40.8 µM: TGI [41]

COc1ccc(C2=NNC(=O)OC2c2ccccc2)cc1 (configuration not stated)
> 100 µM: TGI [1] | TGI [3] | TGI [4] | TGI [5] | TGI [7] | TGI [8] | TGI [9] | TGI [10] | TGI [11] | TGI [57] | TGI [12] | TGI [13] | TGI [14] | TGI [15] | TGI [16] | TGI [58] | TGI [17] | TGI [18] | TGI [19] | TGI [20] | TGI [21] | TGI [22] | TGI [23] | TGI [24] | TGI [25] | TGI [27] | TGI [28] | TGI [29] | TGI [30] | TGI [31] | TGI [32] | TGI [33] | TGI [63] | TGI [34] | TGI [35] | TGI [36] | TGI [37] | TGI [38] | TGI [40] | TGI [41] | TGI [42] | TGI [43] | TGI [44] | TGI [45] | TGI [46] | TGI [47] | TGI [48] | TGI [49] | TGI [50] | TGI [51] | TGI [53] | TGI [54] | TGI [55] | TGI [56]
